Tests used:
[1] = biological target: T1, Peroxisome proliferator-activated receptor gamma (Homo sapiens, UniProt P37231); format: functional
T1 sequence (P37231 whole entry): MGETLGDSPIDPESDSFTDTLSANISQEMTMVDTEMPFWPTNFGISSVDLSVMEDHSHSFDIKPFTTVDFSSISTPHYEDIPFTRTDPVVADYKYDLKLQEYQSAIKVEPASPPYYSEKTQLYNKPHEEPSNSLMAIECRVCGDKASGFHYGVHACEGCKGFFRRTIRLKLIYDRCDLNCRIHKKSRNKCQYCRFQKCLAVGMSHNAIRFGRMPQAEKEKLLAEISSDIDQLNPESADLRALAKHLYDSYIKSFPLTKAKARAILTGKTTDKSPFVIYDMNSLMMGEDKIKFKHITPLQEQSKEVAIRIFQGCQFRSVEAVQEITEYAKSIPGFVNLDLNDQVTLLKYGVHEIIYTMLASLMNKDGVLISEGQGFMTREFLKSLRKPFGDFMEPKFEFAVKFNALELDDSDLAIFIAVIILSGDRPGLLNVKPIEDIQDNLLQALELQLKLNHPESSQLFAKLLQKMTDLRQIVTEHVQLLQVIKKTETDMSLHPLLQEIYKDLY

[2] = biological target: Vascular endothelial growth factor receptor 2 (Homo sapiens, UniProt P35968); format: functional
Sequence of Vascular endothelial growth factor receptor 2 (P35968 whole entry): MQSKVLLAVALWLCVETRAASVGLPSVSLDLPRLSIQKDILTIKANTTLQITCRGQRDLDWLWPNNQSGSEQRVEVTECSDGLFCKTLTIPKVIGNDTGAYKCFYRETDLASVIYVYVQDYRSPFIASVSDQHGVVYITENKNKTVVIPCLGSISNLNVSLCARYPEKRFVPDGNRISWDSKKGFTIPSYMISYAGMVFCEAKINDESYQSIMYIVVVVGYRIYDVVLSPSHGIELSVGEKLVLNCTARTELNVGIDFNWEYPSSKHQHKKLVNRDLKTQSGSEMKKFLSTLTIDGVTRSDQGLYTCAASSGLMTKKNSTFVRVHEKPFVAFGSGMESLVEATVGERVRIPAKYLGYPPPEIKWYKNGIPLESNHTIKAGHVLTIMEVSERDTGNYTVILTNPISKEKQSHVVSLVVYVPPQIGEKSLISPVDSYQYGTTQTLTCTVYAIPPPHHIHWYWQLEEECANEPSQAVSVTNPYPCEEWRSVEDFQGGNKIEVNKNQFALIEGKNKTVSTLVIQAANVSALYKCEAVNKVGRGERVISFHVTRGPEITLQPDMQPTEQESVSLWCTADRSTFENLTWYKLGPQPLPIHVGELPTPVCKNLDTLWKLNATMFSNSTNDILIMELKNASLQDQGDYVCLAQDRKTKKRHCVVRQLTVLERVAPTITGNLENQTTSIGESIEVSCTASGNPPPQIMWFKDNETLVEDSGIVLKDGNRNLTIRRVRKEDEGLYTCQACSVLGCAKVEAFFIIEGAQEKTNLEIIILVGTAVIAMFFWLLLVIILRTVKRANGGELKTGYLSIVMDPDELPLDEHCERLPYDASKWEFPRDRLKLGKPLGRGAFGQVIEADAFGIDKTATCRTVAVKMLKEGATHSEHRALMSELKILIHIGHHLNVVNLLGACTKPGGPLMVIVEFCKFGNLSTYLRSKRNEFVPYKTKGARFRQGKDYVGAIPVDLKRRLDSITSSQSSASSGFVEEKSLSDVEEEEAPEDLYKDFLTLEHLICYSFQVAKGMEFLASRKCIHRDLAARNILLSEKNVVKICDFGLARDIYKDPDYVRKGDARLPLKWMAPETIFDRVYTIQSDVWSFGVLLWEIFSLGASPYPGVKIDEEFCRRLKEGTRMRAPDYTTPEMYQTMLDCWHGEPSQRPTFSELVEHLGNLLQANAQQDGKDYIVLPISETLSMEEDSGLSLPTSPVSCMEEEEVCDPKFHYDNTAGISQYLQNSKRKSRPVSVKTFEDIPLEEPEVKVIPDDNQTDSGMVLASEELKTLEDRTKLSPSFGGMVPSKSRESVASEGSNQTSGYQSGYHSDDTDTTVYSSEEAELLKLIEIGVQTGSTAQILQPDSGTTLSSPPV

[3] = biological target: T2, Estrogen receptor (Homo sapiens, UniProt P03372)
T2 sequence (P03372 whole entry): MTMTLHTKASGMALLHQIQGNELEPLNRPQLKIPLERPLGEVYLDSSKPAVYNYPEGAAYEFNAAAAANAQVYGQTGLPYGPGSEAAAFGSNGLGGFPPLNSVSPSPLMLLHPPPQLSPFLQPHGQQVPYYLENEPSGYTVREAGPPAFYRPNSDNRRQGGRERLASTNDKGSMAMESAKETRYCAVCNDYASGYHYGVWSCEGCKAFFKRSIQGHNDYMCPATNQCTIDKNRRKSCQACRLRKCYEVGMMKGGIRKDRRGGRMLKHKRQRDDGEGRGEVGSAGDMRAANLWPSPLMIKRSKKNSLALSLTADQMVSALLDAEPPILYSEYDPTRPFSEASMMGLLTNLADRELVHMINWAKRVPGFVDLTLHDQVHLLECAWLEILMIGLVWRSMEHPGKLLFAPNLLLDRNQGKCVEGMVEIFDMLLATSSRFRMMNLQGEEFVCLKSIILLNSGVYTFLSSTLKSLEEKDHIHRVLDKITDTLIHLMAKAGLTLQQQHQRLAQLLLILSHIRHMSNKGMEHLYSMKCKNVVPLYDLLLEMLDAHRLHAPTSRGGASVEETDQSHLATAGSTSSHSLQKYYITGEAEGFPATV

[4] = biological target: T3, Endothelin receptor type B (Homo sapiens, UniProt P24530)
T3 sequence (P24530 whole entry): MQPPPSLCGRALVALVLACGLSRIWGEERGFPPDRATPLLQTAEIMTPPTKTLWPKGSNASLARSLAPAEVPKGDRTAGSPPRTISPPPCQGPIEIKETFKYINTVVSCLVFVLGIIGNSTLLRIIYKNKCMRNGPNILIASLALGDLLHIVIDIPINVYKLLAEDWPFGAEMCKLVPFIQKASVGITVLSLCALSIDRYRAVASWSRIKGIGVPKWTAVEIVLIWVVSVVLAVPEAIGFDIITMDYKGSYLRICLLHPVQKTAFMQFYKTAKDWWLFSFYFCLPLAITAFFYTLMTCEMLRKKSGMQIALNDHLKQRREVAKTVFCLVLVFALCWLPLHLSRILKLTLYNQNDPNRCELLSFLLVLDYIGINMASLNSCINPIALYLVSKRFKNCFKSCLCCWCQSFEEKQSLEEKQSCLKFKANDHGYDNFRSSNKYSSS

[5] = biological target: Neurotensin receptor type 1 (Homo sapiens, UniProt P30989)
Sequence of Neurotensin receptor type 1 (P30989 whole entry): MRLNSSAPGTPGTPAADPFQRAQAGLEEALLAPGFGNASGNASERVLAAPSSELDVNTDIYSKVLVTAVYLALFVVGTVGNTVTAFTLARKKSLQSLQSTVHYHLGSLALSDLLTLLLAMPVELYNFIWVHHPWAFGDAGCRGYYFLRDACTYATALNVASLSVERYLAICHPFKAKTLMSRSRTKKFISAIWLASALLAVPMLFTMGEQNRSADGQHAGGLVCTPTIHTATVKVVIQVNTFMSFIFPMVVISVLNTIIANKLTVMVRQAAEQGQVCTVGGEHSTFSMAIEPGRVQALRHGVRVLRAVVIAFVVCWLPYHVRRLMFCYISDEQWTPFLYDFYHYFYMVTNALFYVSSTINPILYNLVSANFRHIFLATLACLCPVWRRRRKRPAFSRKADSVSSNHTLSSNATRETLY

[6] = biological target: T4, Corticotropin-releasing factor receptor 2 (Homo sapiens, UniProt Q13324)
T4 sequence (Q13324 whole entry): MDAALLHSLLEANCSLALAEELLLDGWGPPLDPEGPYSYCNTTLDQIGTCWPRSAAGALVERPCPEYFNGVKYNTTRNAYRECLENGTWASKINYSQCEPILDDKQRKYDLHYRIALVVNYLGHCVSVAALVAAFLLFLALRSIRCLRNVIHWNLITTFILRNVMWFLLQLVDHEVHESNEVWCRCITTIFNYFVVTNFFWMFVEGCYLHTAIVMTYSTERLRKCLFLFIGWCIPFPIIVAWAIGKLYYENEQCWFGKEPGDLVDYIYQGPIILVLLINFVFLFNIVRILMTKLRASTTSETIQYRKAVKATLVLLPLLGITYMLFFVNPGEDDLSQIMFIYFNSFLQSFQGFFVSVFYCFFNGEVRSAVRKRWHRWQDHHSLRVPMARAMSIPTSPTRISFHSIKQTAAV

[7] = biological target: T5, Neuropeptide Y receptor type 2 (Homo sapiens, UniProt P49146)
T5 sequence (P49146 whole entry): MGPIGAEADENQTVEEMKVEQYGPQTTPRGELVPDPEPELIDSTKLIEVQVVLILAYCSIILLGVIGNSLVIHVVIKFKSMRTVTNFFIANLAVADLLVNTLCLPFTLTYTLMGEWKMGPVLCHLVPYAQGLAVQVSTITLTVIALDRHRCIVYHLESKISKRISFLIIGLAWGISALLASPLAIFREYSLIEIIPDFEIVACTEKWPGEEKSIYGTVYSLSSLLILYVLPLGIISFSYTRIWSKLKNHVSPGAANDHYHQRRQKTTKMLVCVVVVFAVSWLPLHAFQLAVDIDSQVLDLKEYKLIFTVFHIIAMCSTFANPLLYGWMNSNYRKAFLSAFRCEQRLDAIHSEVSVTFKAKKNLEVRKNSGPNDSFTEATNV

[8] = biological target: T6, Corticotropin-releasing factor receptor 1 (Homo sapiens, UniProt P34998)
T6 sequence (P34998 whole entry): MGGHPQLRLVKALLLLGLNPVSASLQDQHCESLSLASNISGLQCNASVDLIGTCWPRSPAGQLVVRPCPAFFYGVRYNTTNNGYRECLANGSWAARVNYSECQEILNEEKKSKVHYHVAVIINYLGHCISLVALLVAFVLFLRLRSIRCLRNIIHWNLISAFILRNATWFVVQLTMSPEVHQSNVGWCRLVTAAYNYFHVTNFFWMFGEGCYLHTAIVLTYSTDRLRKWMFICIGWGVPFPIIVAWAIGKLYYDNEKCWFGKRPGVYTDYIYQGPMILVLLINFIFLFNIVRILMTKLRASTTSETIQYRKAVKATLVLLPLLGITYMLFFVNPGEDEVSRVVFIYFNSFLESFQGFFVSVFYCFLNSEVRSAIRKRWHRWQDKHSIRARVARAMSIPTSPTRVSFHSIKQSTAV
Note: assay procedure not described here.

**Q.** How did the AC50 [1] turn out when `C[C@H]1CNCCc2ccc(Cl)cc21` [LORCASERIN] was run?
**A.** The AC50 was > 30 µM.

**Q.** And the AC50 [2]?
**A.** The AC50 was > 30 µM.

**Q.** How did the AC50 [3] turn out when `CN1C(C(=O)Nc2ccccn2)=C(O)c2sc(Cl)cc2S1(=O)=O` [LORNOXICAM] was run?
**A.** The AC50 was > 30 µM.

**Q.** How did the AC50 [1] turn out when `C[C@@H](O)[C@H]1C(=O)N2C(C(=O)O)=C(S[C@@H]3CN[C@H](C(=O)N(C)C)C3)[C@H](C)[C@H]12` [MEROPENEM] was run?
**A.** Its AC50 is > 300 µM.

**Q.** What about the AC50 [2] of the same compound?
**A.** Its AC50 is > 300 µM.

**Q.** For `CNC1Cc2ccccc2N(C)c2ccccc21` (centres undefined) [METAPRAMINE], which AC50 [1] is on record?
**A.** Its AC50 is > 30 µM.

**Q.** What about the AC50 [2] of the same compound?
**A.** Its AC50 is > 30 µM.

**Q.** How did the AC50 [3] turn out when `CC[C@H]1[C@@H](O)[C@@H]2[C@H](CC[C@]3(C)[C@@H]([C@H](C)CCC(=O)O)CC[C@@H]23)[C@@]2(C)CC[C@@H](O)C[C@@H]12` [OBETICHOLIC ACID] was run?
**A.** The AC50 was > 30 µM.

**Q.** How did the AC50 [1] turn out when `COc1ccc(CC(C)(C)NC[C@H](O)c2cc(O)cc3c2OCC(=O)N3)cc1` [OLODATEROL] was run?
**A.** The AC50 was > 30 µM.

**Q.** And the AC50 [2]?
**A.** The AC50 was > 30 µM.

**Q.** How did the AC50 [3] turn out when `COc1cc(NC(C)CCCN)c2ncccc2c1` (centres undefined) [PRIMAQUINE] was run?
**A.** Its AC50 is 6.7 µM.

**Q.** With `COCCCN1CCC(NC(=O)c2cc(Cl)c(N)c3c2OCC3)CC1` [PRUCALOPRIDE] as the compound, how does the AC50 [1] read?
**A.** Its AC50 is > 30 µM.

**Q.** How did the AC50 [3] turn out when `COc1ccccc1OCC(O)CN1CCN(CC(=O)Nc2c(C)cccc2C)CC1` (centres undefined) [RANOLAZINE] was run?
**A.** The AC50 was > 30 µM.

**Q.** Which results are given for `CS(=O)(=O)c1ccc(C2=C(c3ccccc3)C(=O)OC2)cc1` [ROFECOXIB]?
**A.** AC50 [4]: > 30 µM; AC50 [5]: > 30 µM; AC50 [6]: > 30 µM; AC50 [7]: > 30 µM; AC50 [8]: > 30 µM

**Q.** `CO[C@H]1C[C@@H]2CC[C@@H](C)[C@@](O)(O2)C(=O)C(=O)N2CCCC[C@H]2C(=O)O[C@H]([C@H](C)C[C@@H]2CC[C@@H](O)[C@H](OC)C2)CC(=O)[C@H](C)/C=C(\C)[C@@H](O)[C@@H](OC)C(=O)[C@H](C)C[C@H](C)/C=C/C=C/C=C/1C` [SIROLIMUS] was tested. Which AC50 [4] did it give?
**A.** The AC50 was > 30 µM.

**Q.** And the AC50 [5]?
**A.** The AC50 was > 30 µM.

**Q.** What about the AC50 [3] of the same compound?
**A.** The AC50 was > 30 µM.

**Q.** What about the AC50 [6] of the same compound?
**A.** The AC50 was > 30 µM.

**Q.** And the AC50 [7]?
**A.** The AC50 was > 30 µM.

**Q.** What about the AC50 [8] of the same compound?
**A.** Its AC50 is > 30 µM.

**Q.** How did the AC50 [4] turn out when `Cc1cn([C@H]2C=C[C@@H](CO)O2)c(=O)[nH]c1=O` [STAVUDINE] was run?
**A.** Its AC50 is > 30 µM.

**Q.** And the AC50 [5]?
**A.** Its AC50 is > 30 µM.

**Q.** And the AC50 [6]?
**A.** Its AC50 is > 30 µM.

**Q.** What about the AC50 [2] of the same compound?
**A.** The AC50 was > 30 µM.

**Q.** What about the AC50 [7] of the same compound?
**A.** The AC50 was > 30 µM.

**Q.** And the AC50 [8]?
**A.** Its AC50 is > 30 µM.

**Q.** How did the AC50 [4] turn out when `Clc1ccc2nsnc2c1NC1=NCCN1` [TIZANIDINE] was run?
**A.** Its AC50 is > 30 µM.

**Q.** And the AC50 [5]?
**A.** Its AC50 is > 30 µM.

**Q.** What about the AC50 [3] of the same compound?
**A.** Its AC50 is > 30 µM.

**Q.** And the AC50 [6]?
**A.** The AC50 was > 30 µM.

**Q.** What about the AC50 [7] of the same compound?
**A.** The AC50 was > 30 µM.

**Q.** What about the AC50 [8] of the same compound?
**A.** The AC50 was > 30 µM.

**Q.** For `N[C@@H]1[C@H]2CN(c3nc4c(cc3F)c(=O)c(C(=O)O)cn4-c3ccc(F)cc3F)C[C@@H]12` [TROVAFLOXACIN], which AC50 [1] is on record?
**A.** The AC50 was > 30 µM.

**Q.** How did the AC50 [3] turn out when `Nc1ccn([C@H]2CC[C@@H](CO)O2)c(=O)n1` [ZALCITABINE] was run?
**A.** Its AC50 is > 10 µM.

**Q.** How did the AC50 [4] turn out when `Cc1cn([C@H]2C[C@H](N=[N+]=[N-])[C@@H](CO)O2)c(=O)[nH]c1=O` [ZIDOVUDINE] was run?
**A.** Its AC50 is > 30 µM.

**Q.** And the AC50 [5]?
**A.** The AC50 was > 30 µM.

**Q.** What about the AC50 [3] of the same compound?
**A.** Its AC50 is > 30 µM.

**Q.** What about the AC50 [6] of the same compound?
**A.** The AC50 was > 30 µM.

**Q.** What about the AC50 [7] of the same compound?
**A.** The AC50 was > 30 µM.

**Q.** What about the AC50 [8] of the same compound?
**A.** Its AC50 is > 30 µM.

Reference: ChEMBL document CHEMBL5291721, “A preclinical secondary pharmacology resource illuminates target-adverse drug reaction associations of marketed drugs” (Nat Commun, 2023)
